# Earlier results, collected in US20200206380A1, “METHOD OF PRODUCING AND PROVIDING AN ANTIMICROBIAL AGENT THAT EXERTS AN EXTENDED RESIDUAL EFFECT” (Dabney Patents, L.L.C., priority 2018, published 2020).
# Where two headings read alike, the source gives them in different places.
# Test system: bacteria
# Settings: exposed for 20 seconds
smiles,measurement,setting,value
OO [hydrogen peroxide],% of bacteria killed,hydrogen peroxide used alone,30%
same,% of bacteria killed,in combination with radiation of 360 nm to 500 nm,≥ 96%
